Results: ChEMBL document CHEMBL3045174, “Synthesis and Insecticidal Activity of Alkylated N-Benzoyl-N-Phenylureas and Their Toxicity to Aquatic Invertebrate” (J Pestic Sci, 1998)

Key:
Plutella xylostella = assay: Insecticidal activity against second or third-instar Plutella xylostella (diamondback moth) in compound treated cabbage leaves at 26 degC; format: functional
Daphnia magna = assay: Toxicity in Daphnia magna assessed as […] concentration measured up to 48 hr; format: organism-based
[1] = Lipophilicity, log P of the compound by HPLC method; format: physicochemical

| SMILES | LC90 (Plutella xylostella) [ppm] | EC50 (Daphnia magna) [ppb] | logP [1] |
| --- | --- | --- | --- |
| CN(C(=O)NC(=O)c1c(F)cccc1F)c1ccc(Oc2ccc(C(F)(F)F)cc2Cl)c(F)c1 | 0.04 | 500 |  |
| O=C(NC(=O)c1c(F)cccc1F)Nc1ccc(Oc2ccc(C(F)(F)F)cc2Cl)cc1F [FLUFENOXURON] | 0.04 |  |  |
| CN(C(=O)Nc1cc(Cl)c(Oc2ncc(C(F)(F)F)cc2Cl)c(Cl)c1)C(=O)c1c(F)cccc1F | 10 | > 500 | 7.26 |
| CCN(C(=O)NC(=O)c1c(F)cccc1F)c1cc(Cl)c(Oc2ncc(C(F)(F)F)cc2Cl)c(Cl)c1 | 0.3 |  |  |
| O=C(NC(=O)c1c(F)cccc1F)Nc1cc(Cl)c(OC(F)(F)C(F)F)c(Cl)c1 [HEXAFLUMURON] | 0.04 |  |  |
| O=C(NC(=O)c1c(F)cccc1F)Nc1cc(Cl)c(Oc2ncc(C(F)(F)F)cc2Cl)c(Cl)c1 [CHLORFLUAZURON] | 0.04 |  | 5.71 |
| CN(C(=O)c1c(F)cccc1F)C(=O)N(C)c1cc(Cl)c(Oc2ncc(C(F)(F)F)cc2Cl)c(Cl)c1 | 0.3 | > 500 | 4.76 |
| CC(C)N(C(=O)NC(=O)c1c(F)cccc1F)c1cc(Cl)c(Oc2ncc(C(F)(F)F)cc2Cl)c(Cl)c1 | 0.8 |  |  |
| CN(C(=O)NC(=O)c1c(F)cccc1F)c1ccc(Cl)cc1 | 12.5 | > 500 |  |
| CN(C(=O)NC(=O)c1c(F)cccc1F)c1cc(Cl)c(F)c(Cl)c1F | 0.15 | > 500 |  |
| CN(C(=O)NC(=O)c1c(F)cccc1F)c1ccc(-c2ccc(Br)cc2)cc1 | 0.04 | 150 |  |
| O=C(NC(=O)N(Cc1ccccc1)c1cc(Cl)c(Oc2ncc(C(F)(F)F)cc2Cl)c(Cl)c1)c1c(F)cccc1F | 5 |  |  |
| O=C(NC(=O)c1c(F)cccc1F)Nc1cc(Cl)c(F)c(Cl)c1F [TEFLUBENZURON] | 0.02 |  |  |
| CN(C(=O)NC(=O)c1c(F)cccc1F)c1cc(Cl)c(Oc2ncc(C(F)(F)F)cc2Cl)c(Cl)c1 | 0.08 | 450 | 4.21 |
| O=C(NC(=O)c1c(F)cccc1F)Nc1ccc(Cl)cc1 [DIFLUBENZURON] | 12.5 |  |  |
| O=C(NC(=O)N(CC(F)(F)F)c1cc(Cl)c(Oc2ncc(C(F)(F)F)cc2Cl)c(Cl)c1)c1c(F)cccc1F | 1.25 |  |  |
| CN(C(=O)NC(=O)c1c(F)cccc1F)c1ccc(Oc2ccc(C(F)(F)F)cc2Cl)c(Cl)c1 | 0.04 | 100 |  |
